SMILES strings stand for the structures. pIC50: −log10 of the molar value.

NLRP3 inflammasome, sequence (Q96P20 whole entry): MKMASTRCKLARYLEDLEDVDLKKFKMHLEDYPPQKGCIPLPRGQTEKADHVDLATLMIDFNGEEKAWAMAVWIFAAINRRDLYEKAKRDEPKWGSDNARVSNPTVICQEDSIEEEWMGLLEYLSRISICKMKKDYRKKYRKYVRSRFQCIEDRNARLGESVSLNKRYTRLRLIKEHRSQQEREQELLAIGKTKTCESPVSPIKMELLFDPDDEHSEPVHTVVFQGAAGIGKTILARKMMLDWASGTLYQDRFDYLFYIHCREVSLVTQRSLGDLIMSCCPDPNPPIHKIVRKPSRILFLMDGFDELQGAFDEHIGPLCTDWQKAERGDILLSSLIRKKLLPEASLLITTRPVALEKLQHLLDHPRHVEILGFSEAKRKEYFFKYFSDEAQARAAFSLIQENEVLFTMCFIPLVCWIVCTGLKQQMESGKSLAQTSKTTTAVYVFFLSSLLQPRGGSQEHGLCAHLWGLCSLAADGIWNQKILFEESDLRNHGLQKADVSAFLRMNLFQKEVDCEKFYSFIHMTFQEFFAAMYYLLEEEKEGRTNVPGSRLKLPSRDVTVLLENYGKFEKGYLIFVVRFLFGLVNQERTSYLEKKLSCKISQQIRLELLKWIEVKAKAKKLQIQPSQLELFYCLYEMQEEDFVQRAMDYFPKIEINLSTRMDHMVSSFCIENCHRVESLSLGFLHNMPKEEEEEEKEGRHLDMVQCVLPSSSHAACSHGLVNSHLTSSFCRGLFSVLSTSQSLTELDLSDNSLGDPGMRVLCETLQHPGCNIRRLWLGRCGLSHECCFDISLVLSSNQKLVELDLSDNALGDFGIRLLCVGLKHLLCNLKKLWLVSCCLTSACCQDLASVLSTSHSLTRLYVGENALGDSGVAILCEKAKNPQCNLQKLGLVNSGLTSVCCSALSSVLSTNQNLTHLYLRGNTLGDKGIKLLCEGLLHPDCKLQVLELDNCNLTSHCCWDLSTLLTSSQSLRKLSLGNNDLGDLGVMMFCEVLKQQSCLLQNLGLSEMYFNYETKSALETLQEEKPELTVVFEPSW

For one experiment, the system named is intra-articular urate-injected arthritis model.
Experiment: not given
To be noted: cited from earlier work.
In the case of `CS(=O)(=O)CCC#N` [OLT1177], the arthritis entry is listed as “suppressed arthritis”.

The next experiment has as its system MOG35-55EAE model mice.
Experiment: not given
The settings on record: administration after the onset; cited from earlier work.
For the molecule `COc1ccc(Cl)cc1C(=O)NCCc1ccc(S(=O)(=O)NO)cc1` [JC-171, 5-Chloro-N-[2-(4-hydroxysulfamoyl-phenyl)-ethyl]-2-methoxy-benzamide], the “impairment of motor function” value is “inhibited the impairment of motor function”.

The next experiment has as its target NLRP3 inflammasome (Homo sapiens (Human), UniProt Q96P20). Nature of the experiment: Evaluation of NLRP3 inflammasome inhibitory activity (inhibition of IL-1β production in THP1-Null cells, LPS/Nigericin).
Conditions: not given
In general, pIC50 refers to −log10 of the IC50, conventionally taken in molar units. With `CCOC1COCCN(S(=O)(=O)NC(=O)c2coc(Nc3cc(C(F)(F)F)ccc3C)n2)C1` (racemic) [Example 2-318], the negative logarithm of the IC50 (pIC50) is 7.11. In turn, `O=C(NS(=O)(=O)N1CC2CC1CO2)c1coc(Nc2c3c(c(Cl)c4c2CCC4)CCC3)n1` (racemic) [Example 56] showed a pIC50 of 7.34. Molecule `CCCS(=O)(=O)C1CCCN(S(=O)(=O)NC(=O)c2coc(Nc3cc(C(F)(F)F)ccc3C)n2)CC1` (stereo not drawn) [Example 2-306] gave a negative logarithm of the IC50 (pIC50) of 8.01.

For `CC1COCCN1S(=O)(=O)NC(=O)c1cnc(Nc2c3c(cc4c2CCC4)CCC3)o1` (racemic) [Example 5], the pIC50 was greater than 7.52. Still for that read-out and setting: the value for `CCC1CN(S(=O)(=O)NC(=O)c2cnc(Nc3c4c(cc5c3CCC5)CCC4)o2)CCO1` (racemic) [Example 16] was greater than 7.52; that for `Cc1ccc(C(F)(F)F)cc1Nc1nc(C(=O)NS(=O)(=O)N2CCOCC(C(=O)N(C)C)C2)co1` (racemic) [Example 2-143] was 7.07; that for `CC(C)c1ccc(C(F)F)cc1Nc1nc(C(=O)NS(=O)(=O)N2CCCN(S(=O)(=O)C3CCOC3)CC2)co1` (racemic) [Example 2-226] was 7.01. The same measure, in the same setting: the value for `Cc1ccc(C(C)C)cc1Nc1nc(C(=O)NS(=O)(=O)N2CCOCC2C)co1` (racemic) [Example 2-081] was 7.03; that for `CCC1COCCN1S(=O)(=O)NC(=O)c1coc(Nc2cc(C(C)C)ccc2C)n1` (racemic) [Example 2-082] was 6.80; that for `Cc1ccc(C(F)(F)F)cc1Nc1nc(C(=O)NS(=O)(=O)N2CCCOCC2C)co1` (racemic) [Example 2-231] was 7.05. Still for that read-out and setting: as for `Cc1ccc(C(F)(F)F)cc1Nc1nc(C(=O)NS(=O)(=O)N2CCOCC(C#N)C2)co1` (racemic) [Example 2-127], the figure is 6.89.

Staying with this experiment, now noted: IL-1β production in THP1-Null cells, PMA/LPS primed, Nigericin 7.5 μmol/L.
Regarding `O=C1CCN(S(=O)(=O)NC(=O)c2coc(Nc3c4c(c(Cl)c5c3CCC5)CCC4)n2)C1` [Example 65], the pIC50 is 7.20. Molecule `COC1CN(S(=O)(=O)NC(=O)c2cnc(Nc3c4c(cc5c3CCC5)CCC4)o2)C1` [Example 17] showed a negative-log IC50 (pIC50) of 6.08.

Molecule `CC1(O)CCN(S(=O)(=O)NC(=O)c2coc(Nc3c4c(c(F)c5c3CCC5)CCC4)n2)C1` (racemic) [Example 33, 2-((8-fluoro-1,2,3,5,6,7-hexahydro-s-indacen-4-yl)amino)-N-((3-hydroxy-3-methylpyrrolidin-1-yl)sulfonyl)oxazole-4-carboxamide] gave a pIC50 of 7.00.

Still in this experiment, the particulars now being: inhibition of IL-1β production in THP1-Null cells.
For the molecule `CCCS(=O)(=O)N1CCCN(S(=O)(=O)NC(=O)c2coc(Nc3cc(C)ccc3C)n2)CC1` [Example 2-228], the pIC50 is 7.55. Same read-out and setting: the value for `COCCOCC1CCN(S(=O)(=O)NC(=O)c2coc(Nc3cc(C)ccc3C)n2)CCO1` (stereo not drawn) [Example 2-345] was 7.15; that for `Cc1ccc(C(F)(F)F)cc1Nc1nc(C(=O)NS(=O)(=O)N2CCC(=O)N(C)CC2)co1` [Example 2-093] was 7.23; that for `CC(C)c1ccc(OC(F)(F)F)c(Nc2nc(C(=O)NS(=O)(=O)N3CCCOCC3)co2)c1` [Example 2-175] was 6.40.

`Cc1ccc(C2CC2)cc1Nc1nc(C(=O)NS(=O)(=O)N2CCOCC2)co1` [Example 2-001]: the pIC50 was 7.20. The same measure, in the same setting: as for `CCCS(=O)(=O)N1CCCN(S(=O)(=O)NC(=O)c2coc(Nc3cc(C(F)(F)F)ccc3C)n2)CC1` [Example 2-100], the figure is 8.00; as for `Cc1ccc(C)c(Nc2nc(C(=O)NS(=O)(=O)N3CCCN(c4ncccn4)CC3)co2)c1` [Example 2-275], 6.80. Still for that read-out and setting: the value for `Cc1ccc(C(F)(F)F)cc1Nc1nc(C(=O)NS(=O)(=O)NC2CCOCC2)co1` [Example 2-037] was 5.57. The same measure, in the same setting: the value for `Cc1ccc(Br)cc1Nc1nc(C(=O)NS(=O)(=O)N2CCCOCC2)co1` [Example 2-140] was 7.13; that for `CCCCS(=O)(=O)N1CCCN(S(=O)(=O)NC(=O)c2coc(Nc3cc(C)ccc3C)n2)CC1` [Example 2-203] was 7.74. Consider `CC(C)c1nn(C(C)C)cc1Nc1nc(C(=O)NS(=O)(=O)N(C)C)co1` [Example 2-089], for which the negative logarithm of the IC50 (pIC50) is 5.92.

Still in this experiment, the particulars now being: read-out: % inhibition at 3 μM.
A word on the inhibition: it is how much of the control response was suppressed. In the case of `CCc1nn(C(C)C)cc1Nc1nc(C(=O)NS(=O)(=O)N2CCCOCC2)co1` [Example 2-193], the inhibition at 3 µM came to 46%.

The test system of the next experiment is Mice expressing CAPS-related NLRP3 mutations.
Experiment: not given
To be noted: strain expressing CAPS-related NLRP3 mutations; cited from earlier work.
As to `O=C(O)c1ccc(/C=C2/SC(=S)N(Cc3cccc(C(F)(F)F)c3)C2=O)cc1` [CY-09], the survival result is listed as “improved the survival” and the systemic lethal inflammation entry is reported as “suppressed systemic lethal inflammation”.

The record behind these values is patent publication US20230399319A1, “Acylsulfamide Compound and Pharmaceutical Use Therefor” (Japan Tobacco Inc., priority 2019, published 2023).
